Data from BigSolDB 2.1.

C[C@H]1[C@H](C)CC[C@]2(C(=O)O[C@@H]3O[C@H](CO[C@@H]4O[C@H](CO)[C@@H](O[C@@H]5O[C@@H](C)[C@H](O)[C@@H](O)[C@H]5O)[C@H](O)[C@H]4O)[C@@H](O)[C@H](O)[C@H]3O)CC[C@]3(C)C(=CC[C@@H]4[C@@]5(C)C[C@@H](O)[C@H](O)[C@@](C)(CO)[C@@H]5CC[C@]43C)[C@H]12
solubility (mole fraction)
Settings | in ethanol | in methanol | in n-butanol | in n-propanol | in water
278.15 K | – | 0.000902 | – | – | –
283.15 K | – | 0.000904 | – | – | –
288.15 K | – | 0.000973 | – | – | –
293.15 K | – | 0.00103 | – | – | –
298.15 K | 0.00014 | 0.00113 | 2.44e-05 | 5.2e-05 | 1.9e-06
303.15 K | 0.000142 | 0.00122 | 2.93e-05 | 6.06e-05 | 2.1e-06
308.15 K | 0.000146 | 0.00139 | 3.45e-05 | 6.78e-05 | 2.5e-06
313.15 K | 0.000152 | 0.0016 | 4.22e-05 | 8.06e-05 | 3.1e-06
318.15 K | 0.000165 | 0.00182 | 5.1e-05 | 9.61e-05 | 4.2e-06
323.15 K | 0.000176 | 0.00216 | 6.36e-05 | 0.000119 | 5.4e-06
328.15 K | 0.000195 | 0.00253 | 8.03e-05 | 0.000144 | 7.1e-06
333.15 K | 0.000217 | – | 0.000101 | 0.000181 | 1.02e-05
338.15 K | – | – | 0.000132 | 0.00023 | –
343.15 K | – | – | 0.000175 | 0.000304 | –
